Consider 14 compounds from PMC8397297 (ACS Chemical Neuroscience, 2021).

The target in test [1] is T1, mGAT1 (Mus musculus, UniProt P31648).
T1 construct: expressed in transfected cells; host or cells: HEK-293
As to the kind of experiment: [3H]GABA uptake assay in HEK-293 cells stably expressing mGAT1. It counts as cell-based. To be noted: for IC50: [3H]GABA uptake, read-out: pIC50 ± SEM mGAT1 (converted).

The target in another test is T2, mGAT2 (Mus musculus, UniProt P31651).
T2 construct: expressed in transfected cells; host or cells: HEK-293
T2 sequence (P31651 1-614): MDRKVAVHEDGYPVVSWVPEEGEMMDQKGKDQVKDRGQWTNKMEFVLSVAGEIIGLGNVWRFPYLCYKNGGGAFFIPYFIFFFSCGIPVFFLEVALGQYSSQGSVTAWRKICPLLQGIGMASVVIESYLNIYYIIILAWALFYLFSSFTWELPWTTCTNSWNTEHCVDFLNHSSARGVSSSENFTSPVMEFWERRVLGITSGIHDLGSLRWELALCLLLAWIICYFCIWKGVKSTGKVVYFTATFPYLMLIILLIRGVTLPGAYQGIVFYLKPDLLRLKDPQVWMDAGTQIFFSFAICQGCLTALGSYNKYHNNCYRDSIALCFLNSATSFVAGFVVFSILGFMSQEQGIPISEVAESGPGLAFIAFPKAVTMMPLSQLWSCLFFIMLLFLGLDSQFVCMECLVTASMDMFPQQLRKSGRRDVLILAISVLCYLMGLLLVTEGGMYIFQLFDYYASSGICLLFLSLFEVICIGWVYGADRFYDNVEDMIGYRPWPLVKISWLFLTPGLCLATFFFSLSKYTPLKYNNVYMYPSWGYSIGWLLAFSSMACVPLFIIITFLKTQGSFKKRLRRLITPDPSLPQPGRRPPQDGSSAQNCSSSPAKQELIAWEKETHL
As to the kind of experiment: [3H]GABA uptake assay in HEK-293 cells stably expressing mGAT2. It counts as cell-based. The settings on record: [3H]GABA uptake; read-out: pIC50 ± SEM mGAT2 (converted).

For a further test, the target named is T3, mGAT3 (Mus musculus, UniProt P31649).
T3 construct: expressed in transfected cells; host or cells: HEK-293
T3 sequence (P31649 1-602): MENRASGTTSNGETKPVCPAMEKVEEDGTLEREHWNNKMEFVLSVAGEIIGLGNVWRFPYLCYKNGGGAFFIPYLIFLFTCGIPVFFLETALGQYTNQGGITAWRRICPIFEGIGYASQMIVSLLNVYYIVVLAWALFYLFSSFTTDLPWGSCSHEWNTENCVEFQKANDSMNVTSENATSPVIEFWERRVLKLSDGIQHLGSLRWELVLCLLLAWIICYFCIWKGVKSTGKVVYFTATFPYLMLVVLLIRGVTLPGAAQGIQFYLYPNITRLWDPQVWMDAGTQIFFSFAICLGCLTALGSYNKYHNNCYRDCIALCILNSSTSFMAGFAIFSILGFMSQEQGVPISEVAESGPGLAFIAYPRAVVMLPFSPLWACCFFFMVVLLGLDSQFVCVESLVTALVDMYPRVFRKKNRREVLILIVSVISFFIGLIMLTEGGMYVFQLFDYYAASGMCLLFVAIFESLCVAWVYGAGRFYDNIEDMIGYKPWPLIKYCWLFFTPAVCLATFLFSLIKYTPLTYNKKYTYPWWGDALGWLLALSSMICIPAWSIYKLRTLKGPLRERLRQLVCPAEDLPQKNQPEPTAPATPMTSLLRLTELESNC
The experiment in a line: [3H]GABA uptake assay in HEK-293 cells stably expressing mGAT3. The settings on record: [3H]GABA uptake; read-out: pIC50 ± SEM mGAT3 (converted). It counts as cell-based.

In a further test the target is T4, mGAT4 (Mus musculus, UniProt P31650).
T4 construct: expressed in transfected cells; host or cells: HEK-293
T4 sequence (P31650 1-627): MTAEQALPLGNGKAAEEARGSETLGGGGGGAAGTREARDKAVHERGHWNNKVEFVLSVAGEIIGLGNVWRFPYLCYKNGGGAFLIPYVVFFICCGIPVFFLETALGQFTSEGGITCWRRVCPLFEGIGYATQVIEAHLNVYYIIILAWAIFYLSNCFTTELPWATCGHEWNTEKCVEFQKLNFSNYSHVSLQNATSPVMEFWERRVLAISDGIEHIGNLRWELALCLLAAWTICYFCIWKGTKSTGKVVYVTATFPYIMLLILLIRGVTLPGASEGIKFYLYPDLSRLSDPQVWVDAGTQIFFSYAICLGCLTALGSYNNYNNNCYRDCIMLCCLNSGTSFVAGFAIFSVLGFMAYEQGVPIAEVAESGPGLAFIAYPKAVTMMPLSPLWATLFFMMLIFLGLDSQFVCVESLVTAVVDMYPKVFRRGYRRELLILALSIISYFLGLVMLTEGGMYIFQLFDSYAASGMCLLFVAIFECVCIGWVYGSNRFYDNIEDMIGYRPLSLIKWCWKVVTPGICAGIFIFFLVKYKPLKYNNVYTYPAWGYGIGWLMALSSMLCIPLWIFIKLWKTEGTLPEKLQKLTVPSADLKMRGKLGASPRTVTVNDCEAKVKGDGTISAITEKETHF
As to the kind of experiment: [3H]GABA uptake assay in HEK-293 cells stably expressing mGAT4. It counts as cell-based. To be noted: [3H]GABA uptake; read-out: pIC50 ± SEM mGAT4 (converted).

Test [2] deals with T1, mGAT1. As to the kind of experiment: competitive MS binding assay with NO711 as unlabeled marker (LC-ESI-MS/MS). To be noted: for remaining NO711 binding mGAT1: in the presence of 100 μM inhibitor. The protocol:
Specific binding affinity toward mGAT1 was determined via a competitive mass spectrometry (MS) binding assay quantified by liquid chromatography–electrospray ionization tandem mass spectrometry (LC–ESI-MS/MS) with NO711 as an unlabeled marker.[50]
MS binding assays for mGAT1 were performed as described earlier.[50] Inhibition of mGAT1 binding by the synthesized compounds was determined in MS binding assays at a screening concentration of 100 μM and analyzed by LC–ESI-MS/MS.

Turning to `Cc1ccsc1C(=C1CCN(C(CO)C(=O)NCc2ccc(F)cc2)CC1)c1sccc1C` (stereo not shown) [Compound 54c, 2-{4-[Bis(3-methylthiophen-2-yl)methylidene]piperidin-1-yl}-N-[(4-fluorophenyl)methyl]-3-hydroxypropanamide], the IC50 was 17 µM on mGAT1 [1], 13.8 µM at mGAT2, 16.2 µM on mGAT3 and 28.8 µM on mGAT4. In addition, the “remaining NO711 binding mGAT1” value at mGAT1 [2] is on record as 100 μM: 96%.
The matching figures for `CN(CCC=C1c2ccccc2C=Cc2ccccc21)C(CO)C(=O)NCc1ccccc1` (stereo not shown) [Compound 55a, 2-((3-(5H-Dibenzo[a,d][7]annulen-5-ylidene)propyl)(methyl)amino)-N-benzyl-3-hydroxypropanamide]: 17.4 µM, 26.3 µM, 15.8 µM, 8.32 µM and 100 μM: 83%.
For `CN(CCC=C1c2ccccc2C=Cc2ccccc21)C(CO)C(=O)NCc1ccccc1Cl` (stereo not shown) [Compound 55b, 2-((3-(5H-Dibenzo[a,d][7]annulen-5-ylidene)propyl)(methyl)amino)-N-(2-chlorobenzyl)-3-hydroxypropanamide], in that order: 25.7 µM, 15.8 µM, 10.7 µM, 9.55 µM and 100 μM: 65%.
As for `CN(CCC=C1c2ccccc2C=Cc2ccccc21)C(CO)C(=O)NCc1ccc(Cl)cc1` (stereo not shown) [Compound 55c, 2-((3-(5H-Dibenzo[a,d][7]annulen-5-ylidene)propyl)(methyl)amino)-N-(4-chlorobenzyl)-3-hydroxypropanamide], the IC50 on mGAT1 [1] was 28.8 µM; on mGAT2 it was 60.3 µM; at mGAT3, 15.1 µM; on mGAT4, 16.6 µM. The “remaining NO711 binding mGAT1” value on mGAT1 [2] is recorded as 100 μM: 49%.
The matching figures for `CN(CCC=C1c2ccccc2C=Cc2ccccc21)C(CO)C(=O)NCc1ccc(F)cc1` (stereo not shown) [Compound 55d]: 26.3 µM, 20.4 µM, 10.5 µM, 17 µM and 100 μM: 90%.
With `Cc1ccc(CNC(=O)C(CO)N(C)CCC=C2c3ccccc3C=Cc3ccccc32)cc1` (stereo not shown) [Compound 55e, 2-((3-(5H-Dibenzo[a,d][7]annulen-5-ylidene)propyl)(methyl)amino)-N-(4-methylbenzyl)-3-hydroxypropanamide], the IC50 on mGAT1 [1] is 26.9 µM; on mGAT2, 21.4 µM; on mGAT3, 15.8 µM; at mGAT4 it was 13.2 µM. Also, the Ki at mGAT1 [2] (MS binding assay, read-out: pKi ± SEM mGAT1 (converted)) was 29.5 µM.
As to `CN(CCC=C1c2ccccc2CCc2ccccc21)C(CO)C(=O)NCc1ccccc1Cl` (stereo not shown) [Compound 56b, N-(2-Chlorobenzyl)-2-((3-(10.11-dihydro-5H-dibenzo[a,d][7]annulen-5-ylidene)propyl)(methyl)amino)-3-hydroxypropanamide], the “remaining [3H]GABA uptake mGAT1” value at mGAT1 [1] (in the presence of 100 μM inhibitor) was 100 μM: 50%. Also, the IC50 is 25.7 µM at mGAT2, 10.5 µM on mGAT3 and 27.5 µM on mGAT4. Also, the “remaining NO711 binding mGAT1” value at mGAT1 [2] was 100 μM: 86%.
In the case of `CN(CCC=C1c2ccccc2CCc2ccccc21)C(CO)C(=O)NCc1ccc(Cl)cc1` (stereo not shown) [Compound 56c, N-(4-Chlorobenzyl)-2-((3-(10,11-dihydro-5H-dibenzo[a,d][7]annulen-5-ylidene)propyl)(methyl)amino)-3-hydroxypropanamide], the IC50 at mGAT1 [1] was 61.7 µM; on mGAT2, 29.5 µM; at mGAT3, 14.5 µM; on mGAT4, 10.2 µM. Moreover, on mGAT1 [2], the “remaining NO711 binding mGAT1” value was 100 μM: 87%.
For `CN(CCC=C1c2ccccc2CCc2ccccc21)C(CO)C(=O)NCc1ccc(F)cc1` (stereo not shown) [Compound 56d, N-(4-Fluorobenzyl)-2-((3-(10,11-dihydro-5H-dibenzo[a,d][7]annulen-5-ylidene)propyl)(methyl)amino)-3-hydroxypropanamide], in that order: 17.8 µM, 21.4 µM, 12.9 µM, 12.3 µM and 100 μM: 96%.
`O=C(NCc1ccccc1)C(CO)N1CCC(=C2c3ccccc3-c3ccccc32)CC1` (stereo not shown) [Compound 57, N-Benzyl-2-[4-(9H-fluoren-9-ylidene)piperidin-1-yl]-3-hydroxypropanamide]: the IC50 is 24.5 µM at mGAT1 [1], 17.8 µM at mGAT2, 69.2 µM at mGAT3 and 36.3 µM on mGAT4. Further, the “remaining NO711 binding mGAT1” value at mGAT1 [2] is reported as 100 μM: 84%.
Consider `O=C(NCc1ccccc1)C(CO)N1CCC(=C2c3ccccc3CCc3ccccc32)CC1` (stereo not shown) [Compound 58, N-Benzyl-2-(4-(10,11-dihydro-5H-dibenzo[a,d][7]annulen-5-ylidene)piperidin-1-yl)-3-hydroxypropanamide], for which the IC50 at mGAT1 [1] was 35.5 µM; on mGAT2, 22.4 µM; on mGAT3, 20.9 µM; at mGAT4, 23.4 µM. In addition, at mGAT1 [2], the “remaining NO711 binding mGAT1” value is 100 μM: 83%.
For `CN(CCON=C(c1ccccc1)c1ccccc1)C(CO)C(=O)NCc1ccccc1` (stereo not shown) [Compound 59a, N-Benzyl-2-((2-(((diphenylmethylene)amino)oxy)ethyl)(methyl)amino)-3-hydroxypropanamide], in that order: 22.9 µM, 22.9 µM, 58.9 µM, 26.9 µM and 100 μM: 80%.
Turning to `CN(CCON=C(c1ccccc1)c1ccccc1)C(CO)C(=O)NCc1ccccc1Cl` (stereo not shown) [Compound 59b], the IC50 on mGAT1 [1] was 44.7 µM; on mGAT2, 12.9 µM; at mGAT3 it was 15.8 µM; on mGAT4, 12.9 µM. The “remaining NO711 binding mGAT1” value at mGAT1 [2] is 100 μM: 92%.
For `CN(CCON=C(c1ccccc1)c1ccccc1)C(CO)C(=O)NCc1ccc(F)cc1` (stereo not shown) [Compound 59c, 2-((2-(((Diphenylmethylene)amino)oxy)ethyl)(methyl)amino)-N-(4-fluorobenzyl)-3-hydroxypropanamide], the IC50 is 26.3 µM on mGAT1 [1], 17 µM at mGAT2, 19.5 µM at mGAT3 and 16.6 µM at mGAT4. Further, the “remaining NO711 binding mGAT1” value at mGAT1 [2] is on record as 100 μM: 84%.
